In ChEMBL document CHEMBL3046227, “Synthesis and evaluation in vitro of 1-[2-(10-dihydroartemisininoxy) ethyl]-3-phenylurea derivatives as potential agents against cancer” (Med Chem Res, 2013):

What was measured:
[1] = system: HCT-116; assay: Ratio of dihydroartemisinin IC50 to compound IC50 for Homo sapiens (human) HCT116 cells; format: functional
[2] = system: HT-1080; assay: Cytotoxicity against Homo sapiens (human) HT1080 cells after 48 hr by MTT assay; format: functional, cell-based; conditions: HT-1080, 48 h
[3] = Cytotoxicity against Homo sapiens (human) A375-S2 cells after 48 hr by MTT assay; format: functional, cell-based; conditions: A375-S2, 48 h
[4] = system: A549; assay: Cytotoxicity against Homo sapiens (human) A549 cells after 48 hr by MTT assay; format: functional, cell-based; conditions: A549, 48 h
[5] = system: HepG2; assay: Cytotoxicity against Homo sapiens (human) HepG2 cells after 48 hr by MTT assay; format: functional, cell-based; conditions: HepG2, 48 h
[6] = system: HCT-116; assay: Cytotoxicity against Homo sapiens (human) HCT116 cells after 48 hr by MTT assay; format: functional, cell-based; conditions: HCT-116, 48 h
[7] = system: HL-60; assay: Cytotoxicity against Homo sapiens (human) HL60 cells after 48 hr by MTT assay; format: functional, cell-based; conditions: HL-60, 48 h
[8] = system: K562; assay: Cytotoxicity against Homo sapiens (human) K562 cells after 48 hr by MTT assay; format: functional, cell-based; conditions: K562, 48 h
[9] = system: U-937; assay: Cytotoxicity against Homo sapiens (human) U937 cells after 48 hr by MTT assay; format: functional, cell-based; conditions: U-937, 48 h
[10] = system: MCF7; assay: Cytotoxicity against Homo sapiens (human) MCF7 cells after 48 hr by MTT assay; format: functional, cell-based; conditions: MCF7, 48 h
[11] = system: HeLa; assay: Cytotoxicity against Homo sapiens (human) HeLa cells after 48 hr by MTT assay; format: functional, cell-based
[12] = system: A549; assay: Ratio of dihydroartemisinin IC50 to compound IC50 for Homo sapiens (human) A549 cells; format: functional
[13] = system: MCF7; assay: Ratio of dihydroartemisinin IC50 to compound IC50 for Homo sapiens (human) MCF7 cells; format: functional

SMILES: Cc1ccc(C)c(NC(=O)NCCO[C@H]2O[C@@H]3O[C@@]4(C)CC[C@H]5[C@H](C)CC[C@@H]([C@H]2C)[C@@]35OO4)c1
- Ratio IC50 [1]: 1.7
- IC50 [2]: > 100 µM
- IC50 [3]: > 100 µM
- IC50 [4]: 33.7 µM
- IC50 [5]: 23.2 µM
- IC50 [6]: 47.5 µM
- IC50 [7]: < 1 µM
- IC50 [8]: 23 µM
- IC50 [9]: 2.51 µM
- IC50 [10]: 42.2 µM
- IC50 [11]: 31 µM
- Ratio IC50 [12]: 1.2

SMILES: Cc1c(Cl)cccc1NC(=O)NCCO[C@H]1O[C@@H]2O[C@@]3(C)CC[C@H]4[C@H](C)CC[C@@H]([C@H]1C)[C@@]24OO3
- Ratio IC50 [1]: 1.7
- IC50 [2]: > 100 µM
- IC50 [3]: > 100 µM
- IC50 [4]: 26.2 µM
- IC50 [5]: 40.6 µM
- IC50 [6]: 22.7 µM
- IC50 [7]: < 1 µM
- IC50 [8]: 9.45 µM
- IC50 [9]: 2.59 µM
- IC50 [10]: 36.8 µM
- IC50 [11]: 25.7 µM
- Ratio IC50 [12]: 1.2

SMILES: C[C@H]1[C@@H](OCCNC(=O)Nc2ccc(F)cc2)O[C@@H]2O[C@@]3(C)CC[C@H]4[C@H](C)CC[C@@H]1[C@@]24OO3
- Ratio IC50 [1]: 1.7
- IC50 [2]: 26.8 µM
- IC50 [3]: 33.7 µM
- IC50 [4]: 43.7 µM
- IC50 [5]: 26.2 µM
- IC50 [6]: 43.7 µM
- IC50 [7]: 3.64 µM
- IC50 [8]: 38.4 µM
- IC50 [9]: 25.2 µM
- IC50 [10]: 46.8 µM
- IC50 [11]: 35.2 µM
- Ratio IC50 [12]: 1.2

SMILES: C[C@H]1[C@@H](OCCNC(=O)Nc2ccc(Cl)cc2)O[C@@H]2O[C@@]3(C)CC[C@H]4[C@H](C)CC[C@@H]1[C@@]24OO3
- Ratio IC50 [1]: 1.7
- IC50 [2]: 43.9 µM
- IC50 [3]: 41 µM
- IC50 [4]: 42 µM
- IC50 [5]: 36.3 µM
- IC50 [6]: 39.5 µM
- IC50 [7]: < 1 µM
- IC50 [8]: 32.5 µM
- IC50 [9]: 9.99 µM
- IC50 [10]: 32.8 µM
- IC50 [11]: 20.6 µM
- Ratio IC50 [12]: 1.2

SMILES: C[C@H]1[C@H](OCCNC(=O)Nc2ccc(C(F)(F)F)cc2)O[C@@H]2O[C@@]3(C)CC[C@H]4[C@H](C)CC[C@@H]1[C@@]24OO3
- Ratio IC50 [1]: 1.7
- IC50 [2]: > 100 µM
- IC50 [3]: > 100 µM
- IC50 [4]: 37.1 µM
- IC50 [5]: 11.7 µM
- IC50 [6]: 46.4 µM
- IC50 [7]: < 1 µM
- IC50 [8]: 26.1 µM
- IC50 [9]: < 1 µM
- IC50 [10]: > 100 µM
- IC50 [11]: 31.7 µM
- Ratio IC50 [12]: 1.2

SMILES: C[C@H]1[C@@H](OCCNC(=O)Nc2ccc([N+](=O)[O-])cc2)O[C@@H]2O[C@@]3(C)CC[C@H]4[C@H](C)CC[C@@H]1[C@@]24OO3
- Ratio IC50 [1]: 1.7
- IC50 [2]: 29.8 µM
- IC50 [3]: 35.9 µM
- IC50 [4]: 53 µM
- IC50 [5]: 39.6 µM
- IC50 [6]: 44.4 µM
- IC50 [7]: 1.2 µM
- IC50 [8]: 32.1 µM
- IC50 [9]: 7.75 µM
- IC50 [10]: 42.2 µM
- IC50 [11]: 23 µM
- Ratio IC50 [12]: 1.2

SMILES: C[C@H]1[C@@H](OCCNC(=O)Nc2ccc(Br)cc2)O[C@@H]2O[C@@]3(C)CC[C@H]4[C@H](C)CC[C@@H]1[C@@]24OO3
- Ratio IC50 [1]: 1.7
- IC50 [2]: > 100 µM
- IC50 [3]: > 100 µM
- IC50 [4]: 34.2 µM
- IC50 [5]: 23.2 µM
- IC50 [6]: 26.7 µM
- IC50 [7]: < 1 µM
- IC50 [8]: 27.6 µM
- IC50 [9]: 5.2 µM
- IC50 [10]: 25.6 µM
- IC50 [11]: 18.2 µM
- Ratio IC50 [12]: 1.2

SMILES: C[C@H]1[C@H](OCCNC(=O)Nc2ccc(Br)cc2)O[C@@H]2O[C@@]3(C)CC[C@H]4[C@H](C)CC[C@@H]1[C@@]24OO3
- Ratio IC50 [1]: 1.7
- IC50 [2]: 35.2 µM
- IC50 [3]: 23.9 µM
- IC50 [4]: 39.4 µM
- IC50 [5]: 24.3 µM
- IC50 [6]: 35 µM
- IC50 [7]: < 1 µM
- IC50 [8]: 34.6 µM
- IC50 [9]: < 1 µM
- IC50 [10]: 25.9 µM
- IC50 [11]: 23.9 µM
- Ratio IC50 [12]: 1.2

SMILES: C[C@H]1[C@H](OCCNC(=O)Nc2ccc(Cl)cc2)O[C@@H]2O[C@@]3(C)CC[C@H]4[C@H](C)CC[C@@H]1[C@@]24OO3
- Ratio IC50 [1]: 1.7
- IC50 [2]: 40.3 µM
- IC50 [3]: 9.25 µM
- IC50 [4]: 35.5 µM
- IC50 [5]: 16.6 µM
- IC50 [6]: 37.8 µM
- IC50 [7]: < 1 µM
- IC50 [8]: 37.9 µM
- IC50 [9]: 2.6 µM
- IC50 [10]: 25.9 µM
- IC50 [11]: 19.7 µM
- Ratio IC50 [12]: 1.2

SMILES: C[C@H]1[C@H](OCCNC(=O)Nc2ccc([N+](=O)[O-])cc2)O[C@@H]2O[C@@]3(C)CC[C@H]4[C@H](C)CC[C@@H]1[C@@]24OO3
- Ratio IC50 [1]: 1.7
- IC50 [2]: > 100 µM
- IC50 [3]: > 100 µM
- IC50 [4]: 49.6 µM
- IC50 [5]: 34.3 µM
- IC50 [6]: 41 µM
- IC50 [7]: < 1 µM
- IC50 [8]: > 100 µM
- IC50 [9]: 9.26 µM
- IC50 [10]: 94.7 µM
- IC50 [11]: 64.2 µM
- Ratio IC50 [12]: 1.2

SMILES: COc1ccc(NC(=O)NCCO[C@H]2O[C@@H]3O[C@@]4(C)CC[C@H]5[C@H](C)CC[C@@H]([C@H]2C)[C@@]35OO4)cc1
- Ratio IC50 [1]: 1.7
- IC50 [2]: > 100 µM
- IC50 [3]: > 100 µM
- IC50 [4]: 63.2 µM
- IC50 [5]: 46.2 µM
- IC50 [6]: 50.7 µM
- IC50 [7]: 2.53 µM
- IC50 [8]: 55.8 µM
- IC50 [9]: 23.7 µM
- IC50 [10]: > 100 µM
- IC50 [11]: 61.5 µM
- Ratio IC50 [12]: 1.2

SMILES: C[C@H]1[C@@H](OCCNC(=O)Nc2ccc(C(F)(F)F)cc2)O[C@@H]2O[C@@]3(C)CC[C@H]4[C@H](C)CC[C@@H]1[C@@]24OO3
- Ratio IC50 [1]: 1.7
- Ratio IC50 [13]: 4
- IC50 [2]: > 100 µM
- IC50 [3]: > 100 µM
- IC50 [4]: 29.5 µM
- IC50 [5]: 11.2 µM
- IC50 [6]: 31.3 µM
- IC50 [7]: < 1 µM
- IC50 [8]: 6.97 µM
- IC50 [9]: 1.1 µM
- IC50 [10]: 11.6 µM
- IC50 [11]: 16.6 µM
- Ratio IC50 [12]: 1.2

SMILES: Cc1ccccc1NC(=O)NCCO[C@H]1O[C@@H]2O[C@@]3(C)CC[C@H]4[C@H](C)CC[C@@H]([C@H]1C)[C@@]24OO3
- Ratio IC50 [1]: 1.7
- IC50 [2]: > 100 µM
- IC50 [3]: > 100 µM
- IC50 [4]: 41.7 µM
- IC50 [5]: 53.2 µM
- IC50 [6]: 53.8 µM
- IC50 [7]: 2.11 µM
- IC50 [8]: 29.4 µM
- IC50 [9]: 16.2 µM
- IC50 [10]: 88.9 µM
- IC50 [11]: 64.7 µM
- Ratio IC50 [12]: 1.2

SMILES: C[C@H]1[C@@H](OCCNC(=O)Nc2ccccc2)O[C@@H]2O[C@@]3(C)CC[C@H]4[C@H](C)CC[C@@H]1[C@@]24OO3
- Ratio IC50 [1]: 1.7
- IC50 [2]: > 100 µM
- IC50 [3]: > 100 µM
- IC50 [4]: 63.3 µM
- IC50 [5]: 34 µM
- IC50 [6]: 53.8 µM
- IC50 [7]: 3 µM
- IC50 [8]: 25 µM
- IC50 [9]: 6.06 µM
- IC50 [10]: 43.7 µM
- IC50 [11]: 25.1 µM
- Ratio IC50 [12]: 1.2

SMILES: C[C@H]1[C@@H](O)O[C@@H]2O[C@@]3(C)CC[C@H]4[C@H](C)CC[C@@H]1[C@@]24OO3 [ARTENIMOL]
- IC50 [2]: 49.1 µM
- IC50 [3]: 5.48 µM
- IC50 [4]: 76.2 µM
- IC50 [5]: 30.1 µM
- IC50 [6]: 95.4 µM
- IC50 [7]: < 1 µM
- IC50 [8]: 9.81 µM
- IC50 [9]: < 1 µM
- IC50 [10]: 50.2 µM
- IC50 [11]: 8.85 µM
